This is an account of results in ChEMBL document CHEMBL1149137, “Synthesis, screening, and molecular modeling of new potent and selective antagonists at the alpha 1d adrenergic receptor” (J Med Chem, 2004).

For assay [1], the target named is Alpha-1D adrenergic receptor (Homo sapiens) (UniProt P25100). Put plainly: Binding affinity to the adrenergic receptor alpha-1D of cloned human receptor.
The target in assay [2] is T1, 5-hydroxytryptamine receptor 1A (Homo sapiens, UniProt P08908).
T1 sequence (P08908 whole entry): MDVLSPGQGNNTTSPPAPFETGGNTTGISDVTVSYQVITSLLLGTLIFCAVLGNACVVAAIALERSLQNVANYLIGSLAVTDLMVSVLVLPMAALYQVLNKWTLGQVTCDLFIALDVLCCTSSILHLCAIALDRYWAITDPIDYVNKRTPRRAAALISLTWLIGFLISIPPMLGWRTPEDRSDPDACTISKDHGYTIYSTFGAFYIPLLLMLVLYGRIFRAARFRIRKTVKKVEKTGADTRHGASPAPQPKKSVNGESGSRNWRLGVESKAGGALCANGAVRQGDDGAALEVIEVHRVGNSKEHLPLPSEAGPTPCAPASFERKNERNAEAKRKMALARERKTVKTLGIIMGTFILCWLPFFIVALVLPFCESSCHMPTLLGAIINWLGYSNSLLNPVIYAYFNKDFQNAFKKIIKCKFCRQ
Put plainly: Binding affinity to human 5-hydroxytryptamine 1A receptor was measured using [3H]-8-hydroxy-2-(di-n-propylamine) tetraline [3H]8-OH-DPAT) as radioligand.

Assay [3] has as its target Alpha-1A adrenergic receptor (Homo sapiens) (UniProt P35348). In words: In vitro binding affinity towards alpha-1A adrenergic receptor through displacement of [3H]prazosin in cloned human receptor. (In general: In a radioligand displacement assay an active substance lowers the binding of a labelled ligand.)

The structures appear in SMILES notation.

For the compound `O=C1CC2(CCCC2)CC(=O)N1CCN1CCN(c2cc(F)ccc2F)CC1`, the Ki (in general, the dissociation constant of the complex between target and ligand, obtained from inhibition or displacement) in assay [1] was 0.14 nM; in assay [2] it was 61 nM.
The like results for `O=C1CC2(CCCC2)CC(=O)N1CCN1CCN(c2ccc(Cl)cc2)CC1` were, in that order, 35.9 nM and 599 nM.
With `Cc1ccc(N2CCN(CCN3C(=O)CC4(CCCC4)CC3=O)CC2)c(C)c1`, the Ki in assay [1] came out at 73.3 nM; in assay [2], 2360 nM.
As for `O=C1CC2(CCCC2)C(=O)N1CCN1CCN(c2cc(Cl)ccc2Cl)CC1`, the Ki in assay [1] amounted to 3.11 nM; in assay [3] it was 68.3 nM.
The like results for `CC(CN1CCN(c2cc(Cl)ccc2Cl)CC1)N1C(=O)CC2(CCCC2)CC1=O` (stereo not given) were, in that order, 0.41 nM and 187 nM.
For the compound `COc1ccccc1N1CCN(CCN2C(=O)CC3(CCN(Cc4ccccc4)CC3)CC2=O)CC1`, the Ki in assay [1] is 35.1 nM; in assay [2], > 1000 nM; in assay [3], 294 nM.
Turning to `CN(CCCOc1cc(Cl)ccc1Cl)CCN1C(=O)CC2(CCCC2)CC1=O`, the Ki in assay [1] was 110 nM; in assay [2] it was 452 nM.
For the compound `COc1ccccc1N1CCN(CCN2CCC3(CCCC3)CC2=O)CC1`, the results for the Ki in assay [1], in assay [2] and in assay [3] were 0.37 nM, 2.33 nM and 54.4 nM, respectively.
For `CC(C)Oc1ccccc1N1CCN(CCN2C(=O)CC3(CCCC3)CC2=O)CC1`, the Ki in assay [1] was determined as 2.9 nM; in assay [2] it was 0.54 nM; in assay [3], 3.54 nM.
Turning to `CC(C)c1ccc(N2CCN(CCN3C(=O)CC4(CCCC4)CC3=O)CC2)cc1`, the Ki in assay [1] and in assay [2] was > 1000 nM each time.
Take `O=C1CC2(CCCC2)CC(=O)N1CCN1CCCN(c2ccccc2Cl)CC1`: the Ki in assay [1] worked out at 1.38 nM; in assay [2] it was 0.34 nM; in assay [3], 295 nM.
As for `O=C1CC2(CCCC2)CC(=O)N1CCN1CCN(c2ccccc2O)CC1`, the Ki in assay [1] turned out to be 16.1 nM; in assay [2], 1.36 nM.
For the compound `O=C1CC2(CCCC2)CC(=O)N1CCN1CCN(c2ccc(Cl)cc2Cl)CC1`, the Ki in assay [1] is 3.89 nM; in assay [2], 12.1 nM.
Turning to `O=C1CC2(CCC2)CC(=O)N1CCN1CCN(c2cc(Cl)ccc2Cl)CC1`, the values for the Ki in assay [1] and in assay [3] were 2.65 nM and 120 nM, respectively.
The like results for `O=C1CC2(CCCC2)CC(=O)N1CCN1CCN(c2cc(Br)ccc2Br)CC1` were, in that order, 3.72 nM and 114 nM.
Turning to `O=C1CC2(CCCC2)CC(=O)N1CCN1CCN(c2cc(C(F)(F)F)ccc2Cl)CC1`, the Ki in assay [1] is 39.1 nM; in assay [2] it was > 1000 nM.
Take `O=C1CC2(CCCCC2)CC(=O)N1CCN1CCN(c2cc(Cl)ccc2Cl)CC1`: the values for the Ki in assay [1] and in assay [3] were 2.21 nM and 331 nM, respectively.
The like results for `O=C1CC2(CCCC2)CC(=O)N1CCN1CCN(c2cc(C(F)(F)F)ccc2F)CC1` were, in that order, 7.56 nM and > 1000 nM.
In the case of `CN(CCOc1cc(Cl)ccc1Cl)CCN1C(=O)CC2(CCCC2)CC1=O`, the figures for the Ki in assay [1], in assay [2] and in assay [3] were 19.1 nM, > 1000 nM and 414 nM, respectively.
Turning to `O=C1CC2(CCCC2)CC(=O)N1CCN1CCN(c2ccccc2C(F)(F)F)CC1`, the values for the Ki in assay [1] and in assay [2] were 5.25 nM and 26.3 nM, respectively.
For `O=C1CC2(CCCC2)CC(=O)N1CCN1CCN(c2cc([N+](=O)[O-])ccc2Cl)CC1`, the Ki is 18.2 nM in assay [1], > 1000 nM in assay [2] and 44 nM in assay [3].
The like results for `O=C1CC2(C=CN1CCN1CCN(c3ccccc3Cl)CC1)CCCC2` were, in that order, 0.84 nM, 9.38 nM and 53.9 nM.
On to `COc1ccc(N2CCN(CCN3C(=O)CC4(CCCC4)CC3=O)CC2)cc1`, for which the Ki in assay [1] is 37.8 nM; in assay [2] it was 54.6 nM.
The like results for `O=C1CC2(CCCC2)CC(=O)N1CCN1CCN(c2ccc(Cl)c(Cl)c2)CC1` were, in that order, 5.38 nM and 19.8 nM.
With `O=C1CC2(CCCC2)CC(=O)N1CCCN1CCN(c2cc(Cl)ccc2Cl)CC1`, the figures for the Ki in assay [1], in assay [2] and in assay [3] were 1.72 nM, 401 nM and 2.85 nM, respectively.
Regarding `O=C1CC2(CCCC2)CC(=O)N1CCN1CCN(c2cc([N+](=O)[O-])ccc2F)CC1`, the values for the Ki in assay [1] and in assay [2] were 46.3 nM and > 1000 nM, respectively.
Regarding `O=C1CC2(CCCC2)CC(=O)N1CCNCCOc1ccccc1Cl`, the Ki in assay [1] and in assay [2] was > 1000 nM each time.
With `O=C1CC2(CCCC2)CC(=O)N1CCNCCOc1cc(Cl)ccc1Cl`, the values for the Ki in assay [1] and in assay [2] were 207 nM and > 1000 nM, respectively.
`CN(C(=O)CNCCN1C(=O)CC2(CCCC2)CC1=O)c1cc(Cl)ccc1Cl`: the Ki in assay [1] and in assay [2] was > 1000 nM in each case.
On to `CC1CN(c2ccccc2[N+](=O)[O-])CC(C)N1CCN1C(=O)CC2(CCCC2)CC1=O` (stereo not given), for which the Ki is > 1000 nM in assay [1] and 399 nM in assay [2].
As to `O=C1CC2(CCCCC2)CC(=O)N1CCN1CCN(c2ccccc2Cl)CC1`, the Ki in assay [1] stood at 2.88 nM; in assay [2], 20 nM; in assay [3], 422 nM.
For the compound `CN(CCNc1cc(Cl)ccc1Cl)CCN1C(=O)CC2(CCCC2)CC1=O`, the Ki turned out to be 674 nM in assay [1] and 717 nM in assay [2].
`O=C1C=CC(=O)N1CCN1CCN(c2cc(Cl)ccc2Cl)CC1`: the Ki in assay [1] was 126 nM; in assay [2], > 1000 nM.
As for `O=C1CC2(CCCC2)CC(=O)N1CCN1CCN(c2ccccc2C2CC2)CC1`, the Ki in assay [1] turned out to be 1.34 nM; in assay [2] it was 1.2 nM; in assay [3], 10.9 nM.
The like results for `COc1cccc(N2CCN(CCN3C(=O)CC4(CCCC4)CC3=O)CC2)c1` were, in that order, 54.3 nM, 13.4 nM and > 1000 nM.
Regarding `Cc1ccc(F)c(N2CCN(CCN3C(=O)CC4(CCCC4)CC3=O)CC2)c1`, the Ki in assay [1] is 2.38 nM; in assay [3], > 1000 nM.
`O=C1CC2(CCCC2)CC(=O)N1CCN1CCN(c2ccccc2)CC1`: the Ki is 4.32 nM in assay [1], 35.7 nM in assay [2] and 3350 nM in assay [3].
Turning to `Cc1ccc(Cl)cc1N1CCN(CCN2C(=O)CC3(CCCC3)CC2=O)CC1`, the Ki worked out at 0.37 nM in assay [1], 135 nM in assay [2] and 190 nM in assay [3].
In the case of `Clc1ccccc1N1CCN(CCN2CCC3(CCCC3)CC2)CC1`, the Ki in assay [1] is 8.74 nM; in assay [2], 85.4 nM; in assay [3], > 1000 nM.
Consider `O=C1CCC(=O)N1CCN1CCN(c2cc(Cl)ccc2Cl)CC1`, for which the Ki in assay [1] is 7.78 nM. In other words, the single-digit nanomolar range.
`CN(CCN1C(=O)CC2(CCCC2)CC1=O)CC(=O)N(C)c1cc(Cl)ccc1Cl`: the Ki in assay [1] and in assay [2] was > 1000 nM in each case.
In the case of `CN(CCN1C(=O)CC2(CCCC2)CC1=O)CCN(C)c1cc(Cl)ccc1Cl`, the results for the Ki in assay [1] and in assay [3] were 16.4 nM and 786 nM, respectively.
Regarding `O=C1CC2(CCCC2)CC(=O)N1CCN1CCN(c2c(Cl)cccc2Cl)CC1`, the Ki in assay [1] is 29.9 nM; in assay [2], 234 nM.
Consider `O=C1CC2(CCCC2)CC(=O)N1CCN1CCN(c2cccc(Cl)c2Cl)CC1`, for which the Ki in assay [1] was determined as 12.7 nM; in assay [2], 3.37 nM.
As for `COc1ccccc1N1CCN(CCN2C(=O)CC3(CCN(C(C)=O)CC3)CC2=O)CC1`, the Ki is 429 nM in assay [1], > 10 nM in assay [2] and 1520 nM in assay [3].
Regarding `CCOC(=O)c1ccccc1N1CCN(CCN2C(=O)CC3(CCCC3)CC2=O)CC1`, the Ki in assay [1] came out at 29 nM; in assay [2] it was 4.07 nM.
`CC1CN(c2ccccc2[N+](=O)[O-])CCN1CCN1C(=O)CC2(CCCC2)CC1=O` (stereo not given): the Ki in assay [1] was 597 nM; in assay [2], 86.2 nM.
Turning to `O=C1CC2(CCCC2)CC(=O)N1CCN1CCN(c2ccccc2F)CC1`, the Ki in assay [3] is > 1000 nM.
Turning to `Cc1ccc(C)c(N2CCN(CCN3C(=O)CC4(CCCC4)CC3=O)CC2)c1`, the figures for the Ki in assay [1] and in assay [3] were 10.1 nM and 119 nM, respectively.
In the case of `O=C1CC2(CCCC2)CC(=O)N1CCN1CCN(c2cccc(C(F)(F)F)c2)CC1`, the Ki in assay [1] was determined as 153 nM; in assay [2], 8.22 nM.
As for `COc1ccccc1OCCNCCN1C(=O)CC2(CCCC2)CC1=O`, the Ki in assay [1] is > 1000 nM; in assay [2], 526 nM.
The like results for `CN(CCN1C(=O)CC2(CCCC2)CC1=O)CC(=O)Nc1cc(Cl)ccc1Cl` were, in that order, > 1000 nM and > 10000 nM.
For `O=C1CC2(CCCC2)CC(=O)N1CCN1CCN(c2ccccc2[N+](=O)[O-])CC1`, the Ki was found to be 15.3 nM in assay [1] and 11.3 nM in assay [2].
Turning to `O=C1CC2(CCCC2)CC(=O)N1CCN1CCN(c2ccc(F)cc2)CC1`, the results for the Ki in assay [1] and in assay [2] were 24.1 nM and 153 nM, respectively.
The like results for `CN(CCCN(C)c1cc(Cl)ccc1Cl)CCN1C(=O)CC2(CCCC2)CC1=O` were, in that order, 110 nM and > 1000 nM.
For the compound `N#Cc1ccc(Cl)cc1N1CCN(CCN2C(=O)CC3(CCCC3)CC2=O)CC1`, the Ki in assay [1] was found to be 0.2 nM; in assay [3], 503 nM.
The like results for `O=C1CC2(CCCC2)CC(=O)N1CCN1CCC(c2cc(Cl)ccc2Cl)CC1` were, in that order, 1.5 nM and 119 nM.
The like results for `O=C1CC2(CCCC2)CC(=O)N1CCN1CCN(c2cc(F)ccc2Cl)CC1` were, in that order, 0.18 nM and 108 nM.
`CN(CCOc1ccccc1Cl)CCN1C(=O)CC2(CCCC2)CC1=O`: the values for the Ki in assay [1] and in assay [2] were 14.8 nM and 125 nM, respectively.
`O=C1CC2(CCCC2)CC(=O)N1CCN1CCN(c2cc(I)ccc2Cl)CC1`: the Ki in assay [1] came to 15.3 nM; in assay [3] it was 479 nM.
In the case of `CC1(C)CC(=O)N(CCN2CCN(c3ccccc3Cl)CC2)C(=O)C1`, the Ki in assay [1] stood at 23.4 nM; in assay [2] it was 65.8 nM.
